Source: ChEMBL document CHEMBL4507282, “Data for DCP probe BI-1950” (2021)

Legend:
[1] = target: Homeodomain-interacting protein kinase 3 (Homo sapiens) (UniProt Q9H422); conditions: Compound concentration 1000.0 nM
[2] = target: Tyrosine-protein kinase receptor UFO (Homo sapiens) (UniProt P30530); conditions: Compound concentration 1000.0 nM
[3] = tested on: Receptor-type tyrosine-protein kinase FLT3 (Homo sapiens), P36888 [D835H]; conditions: Compound concentration 1000.0 nM
[4] = target: Eukaryotic translation initiation factor 2-alpha kinase 1 (Homo sapiens) (UniProt Q9BQI3); conditions: Compound concentration 1000.0 nM
[5] = target: Cyclin-dependent kinase 9 (Homo sapiens) (UniProt P50750); conditions: Compound concentration 1000.0 nM
[6] = target: Dual specificity mitogen-activated protein kinase kinase 3 (Homo sapiens) (UniProt P46734); conditions: Compound concentration 1000.0 nM
Sequence of Dual specificity mitogen-activated protein kinase kinase 3 (Homo sapiens) (P46734 whole entry): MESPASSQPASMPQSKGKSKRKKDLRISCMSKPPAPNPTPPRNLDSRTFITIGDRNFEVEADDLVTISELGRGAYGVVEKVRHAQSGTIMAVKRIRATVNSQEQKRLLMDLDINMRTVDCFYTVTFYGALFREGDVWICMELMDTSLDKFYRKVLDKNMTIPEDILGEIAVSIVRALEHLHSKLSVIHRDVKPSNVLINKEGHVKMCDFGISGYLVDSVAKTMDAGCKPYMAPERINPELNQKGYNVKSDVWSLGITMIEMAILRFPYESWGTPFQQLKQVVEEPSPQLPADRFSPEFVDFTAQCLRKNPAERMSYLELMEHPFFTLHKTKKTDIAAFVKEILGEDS

[7] = target: Serine/threonine-protein kinase BRSK2 (Homo sapiens) (UniProt Q8IWQ3); conditions: Compound concentration 1000.0 nM
[8] = target: Serine/threonine-protein kinase MARK1 (Homo sapiens) (UniProt Q9P0L2); conditions: Compound concentration 1000.0 nM
[9] = target: Tyrosine-protein kinase CSK (Homo sapiens) (UniProt P41240); conditions: Compound concentration 1000.0 nM
[10] = target: 5-hydroxytryptamine receptor 7 (Homo sapiens) (UniProt P34969); conditions: Compound concentration 10.0 uM
[11] = target: Protein-tyrosine kinase 6 (Homo sapiens) (UniProt Q13882); conditions: Compound concentration 1000.0 nM
[12] = target: Discoidin domain-containing receptor 2 (Homo sapiens) (UniProt Q16832); conditions: Compound concentration 1000.0 nM
[13] = tested on: Epidermal growth factor receptor (Homo sapiens), P00533 [UNDEFINED MUTATION]; conditions: Compound concentration 1000.0 nM
[14] = target: Cyclin-dependent kinase 8 (Homo sapiens) (UniProt P49336); conditions: Compound concentration 1000.0 nM
[15] = target: cAMP-dependent protein kinase catalytic subunit PRKX (Homo sapiens) (UniProt P51817); conditions: Compound concentration 1000.0 nM
[16] = target: MAP/microtubule affinity-regulating kinase 3 (Homo sapiens) (UniProt P27448); conditions: Compound concentration 1000.0 nM
[17] = target: Mitogen-activated protein kinase 15 (Homo sapiens) (UniProt Q8TD08); conditions: Compound concentration 1000.0 nM
[18] = target: Serine/threonine-protein kinase 4 (Homo sapiens) (UniProt Q13043); conditions: Compound concentration 1000.0 nM
[19] = target: Mitogen-activated protein kinase kinase kinase kinase 4 (Homo sapiens) (UniProt O95819); conditions: Compound concentration 1000.0 nM
Sequence of Mitogen-activated protein kinase kinase kinase kinase 4 (Homo sapiens) (O95819 2-1239 limits assumed): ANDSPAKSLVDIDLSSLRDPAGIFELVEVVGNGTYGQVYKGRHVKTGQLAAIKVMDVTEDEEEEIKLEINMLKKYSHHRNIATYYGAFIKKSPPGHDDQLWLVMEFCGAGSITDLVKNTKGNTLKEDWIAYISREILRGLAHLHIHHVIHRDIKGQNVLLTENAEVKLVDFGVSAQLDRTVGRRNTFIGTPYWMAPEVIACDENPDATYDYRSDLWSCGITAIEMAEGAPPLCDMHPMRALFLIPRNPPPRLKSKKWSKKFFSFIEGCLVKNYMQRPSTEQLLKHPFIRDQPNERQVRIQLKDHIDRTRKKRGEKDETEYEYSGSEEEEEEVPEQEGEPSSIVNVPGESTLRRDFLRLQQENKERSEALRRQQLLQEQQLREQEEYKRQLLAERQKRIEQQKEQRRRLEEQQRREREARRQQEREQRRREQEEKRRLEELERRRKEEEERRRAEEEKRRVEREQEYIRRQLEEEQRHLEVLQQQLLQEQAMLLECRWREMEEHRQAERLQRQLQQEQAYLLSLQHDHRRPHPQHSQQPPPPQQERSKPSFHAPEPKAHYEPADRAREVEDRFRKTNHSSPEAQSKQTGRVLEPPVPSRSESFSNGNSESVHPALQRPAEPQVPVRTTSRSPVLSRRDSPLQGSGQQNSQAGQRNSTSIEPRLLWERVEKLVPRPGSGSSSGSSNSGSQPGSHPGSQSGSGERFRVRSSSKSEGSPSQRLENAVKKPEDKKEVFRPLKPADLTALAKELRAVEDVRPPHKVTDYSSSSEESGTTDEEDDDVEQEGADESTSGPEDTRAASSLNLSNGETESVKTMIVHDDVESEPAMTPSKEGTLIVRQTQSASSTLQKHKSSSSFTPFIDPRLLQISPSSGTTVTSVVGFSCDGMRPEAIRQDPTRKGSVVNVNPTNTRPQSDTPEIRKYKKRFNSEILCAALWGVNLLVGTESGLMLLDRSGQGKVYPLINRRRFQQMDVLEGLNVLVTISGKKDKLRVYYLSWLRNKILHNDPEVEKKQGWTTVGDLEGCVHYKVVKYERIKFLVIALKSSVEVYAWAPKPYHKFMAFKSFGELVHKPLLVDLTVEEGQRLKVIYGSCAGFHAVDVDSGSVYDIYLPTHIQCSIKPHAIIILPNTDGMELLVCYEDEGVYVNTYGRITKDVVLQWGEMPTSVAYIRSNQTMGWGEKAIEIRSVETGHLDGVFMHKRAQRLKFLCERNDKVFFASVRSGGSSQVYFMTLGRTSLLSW

[20] = target: LIM domain kinase 1 (Homo sapiens) (UniProt P53667); conditions: Compound concentration 1000.0 nM
Sequence of LIM domain kinase 1 (Homo sapiens) (P53667 whole entry, looked up, the tested form may be a part): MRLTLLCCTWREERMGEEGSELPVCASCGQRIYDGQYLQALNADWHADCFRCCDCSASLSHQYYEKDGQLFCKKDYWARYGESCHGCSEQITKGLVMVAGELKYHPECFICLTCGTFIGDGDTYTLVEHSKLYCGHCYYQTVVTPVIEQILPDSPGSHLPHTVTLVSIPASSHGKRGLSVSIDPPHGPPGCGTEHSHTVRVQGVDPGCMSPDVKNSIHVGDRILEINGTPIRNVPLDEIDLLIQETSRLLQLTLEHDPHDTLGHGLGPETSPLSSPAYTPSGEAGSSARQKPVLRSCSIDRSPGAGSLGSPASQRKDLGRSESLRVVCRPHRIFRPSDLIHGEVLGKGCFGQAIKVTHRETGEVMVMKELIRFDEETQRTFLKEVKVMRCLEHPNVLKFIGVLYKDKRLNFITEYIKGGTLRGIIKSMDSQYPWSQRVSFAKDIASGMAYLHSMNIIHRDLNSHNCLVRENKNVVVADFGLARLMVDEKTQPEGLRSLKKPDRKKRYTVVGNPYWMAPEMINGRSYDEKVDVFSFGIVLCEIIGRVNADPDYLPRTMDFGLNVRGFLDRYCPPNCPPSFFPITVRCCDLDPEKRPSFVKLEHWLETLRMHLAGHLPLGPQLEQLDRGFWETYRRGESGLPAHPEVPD

[21] = target: Receptor-type tyrosine-protein kinase FLT3 (Homo sapiens) (UniProt P36888); conditions: Compound concentration 1000.0 nM
[22] = target: Megakaryocyte-associated tyrosine-protein kinase (Homo sapiens) (UniProt P42679); conditions: Compound concentration 1000.0 nM
[23] = target: Ribosomal protein S6 kinase alpha-5 (Homo sapiens) (UniProt O75582); conditions: Compound concentration 1000.0 nM
Sequence of Ribosomal protein S6 kinase alpha-5 (Homo sapiens) (O75582 whole entry, looked up): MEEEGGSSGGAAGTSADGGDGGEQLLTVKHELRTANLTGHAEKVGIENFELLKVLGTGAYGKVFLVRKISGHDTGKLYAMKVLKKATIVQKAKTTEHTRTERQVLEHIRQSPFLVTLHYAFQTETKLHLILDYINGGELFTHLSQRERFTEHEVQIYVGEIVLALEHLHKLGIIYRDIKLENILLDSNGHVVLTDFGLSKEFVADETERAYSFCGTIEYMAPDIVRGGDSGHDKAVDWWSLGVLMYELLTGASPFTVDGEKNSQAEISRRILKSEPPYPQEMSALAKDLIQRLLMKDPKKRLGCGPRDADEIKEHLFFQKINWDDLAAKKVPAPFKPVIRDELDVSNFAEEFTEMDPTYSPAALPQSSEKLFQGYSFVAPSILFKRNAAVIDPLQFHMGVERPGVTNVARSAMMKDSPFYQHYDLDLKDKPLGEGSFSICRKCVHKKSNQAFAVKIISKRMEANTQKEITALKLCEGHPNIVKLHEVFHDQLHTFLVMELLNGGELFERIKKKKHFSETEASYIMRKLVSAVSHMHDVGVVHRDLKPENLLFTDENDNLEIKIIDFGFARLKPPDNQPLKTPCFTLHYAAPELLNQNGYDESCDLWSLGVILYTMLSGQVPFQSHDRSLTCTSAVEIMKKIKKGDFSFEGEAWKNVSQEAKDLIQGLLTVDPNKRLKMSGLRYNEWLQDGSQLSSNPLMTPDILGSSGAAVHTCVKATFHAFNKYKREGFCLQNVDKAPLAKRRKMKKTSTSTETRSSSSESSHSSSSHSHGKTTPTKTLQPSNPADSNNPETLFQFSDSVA

[24] = target: Serine/threonine-protein kinase pim-3 (Homo sapiens) (UniProt Q86V86); conditions: Compound concentration 1000.0 nM
[25] = tested on: ALK tyrosine kinase receptor (Homo sapiens), Q9UM73 [C1156Y]; conditions: Compound concentration 1000.0 nM
Sequence of ALK tyrosine kinase receptor (Homo sapiens), Q9UM73 [C1156Y] (Q9UM73 whole entry C1156Y, looked up): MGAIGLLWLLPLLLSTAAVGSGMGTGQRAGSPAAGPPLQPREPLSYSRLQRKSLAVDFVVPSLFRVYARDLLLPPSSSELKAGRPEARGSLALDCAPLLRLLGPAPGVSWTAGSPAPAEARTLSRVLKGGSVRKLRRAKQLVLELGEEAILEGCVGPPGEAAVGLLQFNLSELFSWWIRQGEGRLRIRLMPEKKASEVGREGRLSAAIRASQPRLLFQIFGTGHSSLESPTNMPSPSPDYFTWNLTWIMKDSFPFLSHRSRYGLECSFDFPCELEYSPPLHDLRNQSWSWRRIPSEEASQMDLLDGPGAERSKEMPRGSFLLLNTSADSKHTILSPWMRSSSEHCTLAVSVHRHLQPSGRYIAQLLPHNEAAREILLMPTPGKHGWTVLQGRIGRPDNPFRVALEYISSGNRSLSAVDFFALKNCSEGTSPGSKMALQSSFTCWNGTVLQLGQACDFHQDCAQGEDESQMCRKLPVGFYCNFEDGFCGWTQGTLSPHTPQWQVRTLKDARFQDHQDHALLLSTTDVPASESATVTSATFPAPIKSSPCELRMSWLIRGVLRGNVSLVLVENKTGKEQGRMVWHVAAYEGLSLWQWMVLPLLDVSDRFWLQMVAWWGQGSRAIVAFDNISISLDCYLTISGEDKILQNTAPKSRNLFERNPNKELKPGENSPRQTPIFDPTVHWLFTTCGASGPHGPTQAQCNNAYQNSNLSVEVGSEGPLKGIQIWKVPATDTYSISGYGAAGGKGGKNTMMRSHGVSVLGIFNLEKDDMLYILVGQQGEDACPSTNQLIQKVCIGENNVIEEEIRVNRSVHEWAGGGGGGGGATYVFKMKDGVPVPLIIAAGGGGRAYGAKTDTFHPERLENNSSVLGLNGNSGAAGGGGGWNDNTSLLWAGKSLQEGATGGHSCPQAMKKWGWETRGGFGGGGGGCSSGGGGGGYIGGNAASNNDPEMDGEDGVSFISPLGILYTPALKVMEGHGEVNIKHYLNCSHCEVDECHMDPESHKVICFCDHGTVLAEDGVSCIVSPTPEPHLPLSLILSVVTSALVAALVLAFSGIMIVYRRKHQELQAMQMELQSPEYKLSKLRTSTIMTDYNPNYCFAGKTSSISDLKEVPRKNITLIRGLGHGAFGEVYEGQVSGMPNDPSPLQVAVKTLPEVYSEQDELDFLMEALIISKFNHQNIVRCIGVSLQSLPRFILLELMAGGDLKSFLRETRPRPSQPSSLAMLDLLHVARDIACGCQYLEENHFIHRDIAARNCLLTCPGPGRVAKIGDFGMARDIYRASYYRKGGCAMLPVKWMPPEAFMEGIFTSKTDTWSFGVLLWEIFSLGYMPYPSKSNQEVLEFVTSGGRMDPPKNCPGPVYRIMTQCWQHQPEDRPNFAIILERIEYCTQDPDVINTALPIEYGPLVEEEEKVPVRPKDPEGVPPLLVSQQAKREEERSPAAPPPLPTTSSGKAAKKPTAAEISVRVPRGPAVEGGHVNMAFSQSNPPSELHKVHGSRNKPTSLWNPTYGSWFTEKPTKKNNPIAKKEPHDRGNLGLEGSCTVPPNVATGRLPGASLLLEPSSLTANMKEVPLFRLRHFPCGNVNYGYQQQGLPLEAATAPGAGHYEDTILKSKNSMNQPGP

[26] = target: Tyrosine-protein kinase Blk (Homo sapiens) (UniProt P51451); conditions: Compound concentration 1000.0 nM
[27] = target: Myosin-IIIb (Homo sapiens) (UniProt Q8WXR4); conditions: Compound concentration 1000.0 nM
[28] = target: Tyrosine-protein kinase JAK2 (Homo sapiens) (UniProt O60674); conditions: Compound concentration 1000.0 nM
[29] = target: Serine/threonine-protein kinase DCLK2 (Homo sapiens) (UniProt Q8N568); conditions: Compound concentration 1000.0 nM
[30] = target: Phosphatidylinositol 4-phosphate 5-kinase type-1 alpha (Homo sapiens) (UniProt Q99755); conditions: Compound concentration 1000.0 nM
[31] = target: STE20-like serine/threonine-protein kinase (Homo sapiens) (UniProt Q9H2G2); conditions: Compound concentration 1000.0 nM
[32] = target: Serine/threonine-protein kinase WNK4 (Homo sapiens) (UniProt Q96J92); conditions: Compound concentration 1000.0 nM
[33] = target: Serine/threonine-protein kinase 36 (Homo sapiens) (UniProt Q9NRP7); conditions: Compound concentration 1000.0 nM
[34] = target: Serine/threonine-protein kinase PAK 6 (Homo sapiens) (UniProt Q9NQU5); conditions: Compound concentration 1000.0 nM
[35] = tested on: ALK tyrosine kinase receptor (Homo sapiens), Q9UM73 [L1196M]; conditions: Compound concentration 1000.0 nM
Sequence of ALK tyrosine kinase receptor (Homo sapiens), Q9UM73 [L1196M] (Q9UM73 whole entry L1196M, looked up): as the sequence (Q9UM73 whole entry C1156Y, looked up) above, with Y1156C, L1196M counted along it

[36] = target: Uncharacterized serine/threonine-protein kinase SBK3 (Homo sapiens) (UniProt P0C264); conditions: Compound concentration 1000.0 nM
Sequence of Uncharacterized serine/threonine-protein kinase SBK3 (Homo sapiens) (P0C264 whole entry): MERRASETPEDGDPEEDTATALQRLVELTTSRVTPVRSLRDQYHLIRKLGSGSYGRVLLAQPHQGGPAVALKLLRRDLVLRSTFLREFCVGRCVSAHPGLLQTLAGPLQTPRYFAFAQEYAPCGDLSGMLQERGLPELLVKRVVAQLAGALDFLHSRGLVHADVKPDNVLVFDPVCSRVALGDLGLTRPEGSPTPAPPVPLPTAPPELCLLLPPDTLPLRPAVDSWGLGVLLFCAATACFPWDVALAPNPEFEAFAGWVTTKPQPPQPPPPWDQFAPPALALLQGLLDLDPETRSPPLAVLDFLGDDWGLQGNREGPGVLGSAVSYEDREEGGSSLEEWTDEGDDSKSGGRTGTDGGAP

[37] = target: Ribosomal protein S6 kinase alpha-2 (Homo sapiens) (UniProt Q15349); conditions: Compound concentration 1000.0 nM
[38] = target: Histamine H2 receptor (Homo sapiens) (UniProt P25021); conditions: Compound concentration 10.0 uM
[39] = target: Mitogen-activated protein kinase kinase kinase 14 (Homo sapiens) (UniProt Q99558); conditions: Compound concentration 1000.0 nM
[40] = target: Mitogen-activated protein kinase 11 (Homo sapiens) (UniProt Q15759); conditions: Compound concentration 1000.0 nM
[41] = target: Serine/threonine-protein kinase ULK1 (Homo sapiens) (UniProt O75385); conditions: Compound concentration 1000.0 nM
[42] = target: Platelet-derived growth factor receptor alpha (Homo sapiens) (UniProt P16234); conditions: Compound concentration 1000.0 nM
[43] = target: Ephrin type-B receptor 4 (Homo sapiens) (UniProt P54760); conditions: Compound concentration 1000.0 nM
[44] = target: Citron Rho-interacting kinase (Homo sapiens) (UniProt O14578); conditions: Compound concentration 1000.0 nM
[45] = tested on: Receptor-type tyrosine-protein kinase FLT3 (Homo sapiens), P36888 [UNDEFINED MUTATION]; conditions: Compound concentration 1000.0 nM

C[C@H](NC(=O)c1cnc2n1[C@](C)(Cc1ccc(C#N)cc1)C(=O)N2c1cc(Cl)c(F)c(Cl)c1)C(=O)NC1(c2ccccn2)CC1 [BI 1950]
inactive: residual activity [1] 100% | residual activity [2] 100% | residual activity [3] 100% | residual activity [4] 93% | residual activity [5] 100% | residual activity [6] 80% | residual activity [7] 100% | residual activity [8] 100% | residual activity [9] 100% | inhibition [10] -4.31% | residual activity [11] 92% | residual activity [12] 100% | residual activity [13] 82% | residual activity [14] 100% | residual activity [15] 100% | residual activity [16] 92% | residual activity [17] 100% | residual activity [18] 100% | residual activity [19] 100% | residual activity [20] 100% | residual activity [21] 100% | residual activity [22] 100% | residual activity [23] 100% | residual activity [24] 100% | residual activity [25] 100% | residual activity [26] 98% | residual activity [27] 100% | residual activity [28] 100% | residual activity [29] 100% | residual activity [30] 100% | residual activity [31] 100% | residual activity [32] 100% | residual activity [33] 100% | residual activity [34] 96% | residual activity [35] 100% | residual activity [36] 100% | residual activity [37] 100% | inhibition [38] 11.8% | residual activity [39] 100% | residual activity [40] 100% | residual activity [41] 100% | residual activity [42] 100% | residual activity [43] 100% | residual activity [44] 100% | residual activity [45] 100%

C[C@@]1(Cc2ccc(C#N)cc2)C(=O)N(c2cc(Cl)cc(Cl)c2)c2ncc(C(=O)NC3(c4nc(C5CCC5)no4)CC3)n21 [BI 9446]
inactive: residual activity [1] 100% | residual activity [2] 100% | residual activity [3] 100% | residual activity [4] 100% | residual activity [5] 100% | residual activity [6] 89% | residual activity [7] 100% | residual activity [8] 100% | residual activity [9] 98% | inhibition [10] 4.18% | residual activity [11] 100% | residual activity [12] 100% | residual activity [13] 58% | residual activity [14] 100% | residual activity [15] 100% | residual activity [16] 100% | residual activity [17] 100% | residual activity [18] 92% | residual activity [19] 91% | residual activity [20] 90% | residual activity [21] 98% | residual activity [22] 100% | residual activity [23] 100% | residual activity [24] 100% | residual activity [25] 100% | residual activity [26] 100% | residual activity [27] 99% | residual activity [28] 100% | residual activity [29] 100% | residual activity [30] 100% | residual activity [31] 100% | residual activity [32] 100% | residual activity [33] 100% | residual activity [34] 100% | residual activity [35] 100% | residual activity [36] 100% | residual activity [37] 100% | inhibition [38] 11% | residual activity [39] 100% | residual activity [40] 100% | residual activity [41] 100% | residual activity [42] 100% | residual activity [43] 100% | residual activity [44] 100% | residual activity [45] 100%
